Test results published in patent publication US8557741B2, “3-aminocarbonyl-substituted benzoylcyclohexanediones and their use as herbicides” (Bayer CropScience AG, priority 2010, dated 2013).
Where two headings read alike, the source gives them in different places.

Columns and labels:
Type in all cases: in vivo
Alopecurus myosuroides = experiment: Pre-emergence herbicidal action against harmful plants; details: dosage 320 g/ha, visual assessment after 3 weeks (Table A)
Source text: (§1) The abbreviations used in the tables below denote: • ABUTH Abutilon theophrasti • AMARE Amaranthus retroflexus • ECHCG Echinochloa crus galli • PHBPU Phartoitis purpureum • STEME Stellaria media • ALOMY Alopecurus myosuroides • AVEFA Avena fatua • MATIN Matricaria inodora • POLCO Fallopia convolvulus • VERPE Veronica persica 1. Pre-emergence Herbicidal Action Against Harmful Plants Seeds of monocotyledonous and dicotyledonous weed plants and crop plants are placed in wood-fibre pots in sandy loam and covered with soil. The compounds according to the invention and the compounds known from the prior art, formulated in the form of wettable powders (WP) or as emulsion concentrates (EC), are then applied as aqueous suspension or emulsion at a water application rate of 600 to 800 I/ha (converted) with the addition of 0.2% of wetting agent to the surface of the covering soil. After the treatment, the pots are placed in a greenhouse and kept under good growth conditions for the test plants. The visual assessment of the damage to the test plants is carried out after a trial period of 3 weeks by comparison with untreated controls (herbicidal activity in percent (%): 100% activity=the plants have died, 0% activity=like control plants, —=not tested). The results of comparative table A show the compounds according to the invention have a higher herbicidal activity than the compounds of the greatest structural similarity known from the closest prior art.

Phartoitis purpureum [1] = experiment: as above; details: dosage 320 g/ha; for Herbicidal action against PHBPU: visual assessment after 3 weeks (Table A); for Herbicidal action against PHPBU: visual assessment after 3 weeks (Table C)
Source text: as §1

Abutilon theophrasti = experiment: as above; details: dosage 320 g/ha; for pest or weed control at 320 g/ha: Abutilon theophrasti, 504 h, read-out: Herbicidal action against ABUTH
Source text: as §1

Veronica persica [2] = experiment: as above; details: 504 h, dosage 320 g/ha, visual assessment after 3 weeks (Table A), read-out: Herbicidal action against VERPE
Source text: as §1

Avena fatua [3] = experiment: as above; details: dosage 320 g/ha, visual assessment after 3 weeks (Table A)
Source text: as §1

Echinochloa crus galli [4] = experiment: as above; details: dosage 320 g/ha; for pest or weed control at 320 g/ha: Echinochloa, 504 h, read-out: Herbicidal action against ECHCG
Source text: as §1

Amaranthus retroflexus [5] = experiment: as above; details: 504 h, dosage 320 g/ha, read-out: Herbicidal action against AMARE
Source text: as §1

Stellaria media [6] = experiment: as above; details: 504 h, dosage 320 g/ha, visual assessment after 3 weeks (Table A), read-out: Herbicidal action against STEME
Source text: as §1

Matricaria inodora [7] = experiment: as above; details: dosage 320 g/ha; for pest or weed control at 320 g/ha: Tripleurospermum inodorum, 504 h, read-out: Herbicidal action against MATIN
Source text: as §1

Phartoitis purpureum [8] = experiment: Post-emergence herbicidal action against harmful plants; details: 504 h, dosage 80 g/ha
Source text: (§2) The abbreviations used in the tables below denote: • ABUTH Abutilon theophrasti • AMARE Amaranthus retroflexus • ECHCG Echinochloa crus galli • PHBPU Phartoitis purpureum • STEME Stellaria media • ALOMY Alopecurus myosuroides • AVEFA Avena fatua • MATIN Matricaria inodora • POLCO Fallopia convolvulus • VERPE Veronica persica 1. Pre-emergence Herbicidal Action Against Harmful Plants Seeds of monocotyledonous and dicotyledonous weed and crop plants are placed in sandy loam in wood-fibre pots, covered with soil and cultivated in a greenhouse under good growth conditions. 2 to 3 weeks after sowing, the test plants are treated at the one-leaf stage. The compounds according to the invention, formulated in the form of wettable powders (WP) or as emulsion concentrates (EC), are then sprayed as aqueous suspension or emulsion at a water application rate of 600 to 800 I/ha (converted) with the addition of 0.2% of wetting agent onto the green parts of the plants. After the test plants have been kept in the greenhouse under optimum growth conditions for about 3 weeks, the activity of the preparations is rated visually in comparison to untreated controls (herbicidal activity in percent (%): 100% activity=the plants have died, 0% activity=control plants, —=not tested).

Veronica persica [9] = experiment: as above; details: 504 h, dosage 80 g/ha, visual rating after about 3 weeks (Table D), read-out: Herbicidal action against VERPE
Source text: as §2

Avena fatua [10] = experiment: as above; details: dosage 80 g/ha, visual rating after about 3 weeks (Table D)
Source text: as §2

Echinochloa crus galli [11] = experiment: as above; details: 504 h, dosage 80 g/ha, read-out: Herbicidal action against ECHCG
Source text: as §2

Fallopia convolvulus = experiment: as above; details: 504 h, dosage 80 g/ha, read-out: Herbicidal action against POLCO
Source text: as §2

Amaranthus retroflexus [12] = experiment: as above; details: 504 h, dosage 80 g/ha, visual rating after about 3 weeks (Table D), read-out: Herbicidal action against AMARE
Source text: as §2

Stellaria media [13] = experiment: as above; details: 504 h, dosage 80 g/ha, visual rating after about 3 weeks (Table D), read-out: Herbicidal action against STEME
Source text: as §2

Matricaria inodora [14] = experiment: as above; details: Tripleurospermum inodorum, 504 h, dosage 80 g/ha, read-out: Herbicidal action against MATIN
Source text: as §2

VIOTR [15] = experiment: as above; details: dosage 80 g/ha, visual rating after about 3 weeks (Table E)
Protocol: as §2, with “Seeds” for “The abbreviations used in the tables below denote: • ABUTH Abutilon theophrasti • AMARE Amaranthus retroflexus • ECHCG Echinochloa crus galli • PHBPU Phartoitis purpureum • STEME Stellaria media • ALOMY Alopecurus myosuroides • AVEFA Avena fatua • MATIN Matricaria inodora • POLCO Fallopia convolvulus • VERPE Veronica persica 1. Pre-emergence Herbicidal Action Against Harmful Plants Seeds”

SETVI = experiment: Pre-emergence herbicidal action against harmful plants; details: dosage 320 g/ha, visual assessment after 3 weeks (Table C)
Source text: as §1, with “Seeds” for “The abbreviations used in the tables below denote: • ABUTH Abutilon theophrasti • AMARE Amaranthus retroflexus • ECHCG Echinochloa crus galli • PHBPU Phartoitis purpureum • STEME Stellaria media • ALOMY Alopecurus myosuroides • AVEFA Avena fatua • MATIN Matricaria inodora • POLCO Fallopia convolvulus • VERPE Veronica persica 1. Pre-emergence Herbicidal Action Against Harmful Plants Seeds”

VIOTR [16] = experiment: as above; details: dosage 320 g/ha, visual assessment after 3 weeks (Table C)
Source text: as §1, with “Seeds” for “The abbreviations used in the tables below denote: • ABUTH Abutilon theophrasti • AMARE Amaranthus retroflexus • ECHCG Echinochloa crus galli • PHBPU Phartoitis purpureum • STEME Stellaria media • ALOMY Alopecurus myosuroides • AVEFA Avena fatua • MATIN Matricaria inodora • POLCO Fallopia convolvulus • VERPE Veronica persica 1. Pre-emergence Herbicidal Action Against Harmful Plants Seeds”

[17] = visual assessment after 3 weeks (Table A)
[18] = visual rating after about 3 weeks (Table D), read-out: Herbicidal action against PHBPU
[19] = visual rating after about 3 weeks (Table D)
[20] = visual assessment after 3 weeks (Table C)
[21] = visual rating after about 3 weeks (Table E), read-out: Herbicidal action against PHPBU
[22] = visual rating after about 3 weeks (Table E)

CN(C)C(=O)COc1c(Cl)ccc(C(=O)C2=C(O)CCCC2=O)c1C(F)(F)F [Compound E1]
Herbicidal action against ALOMY (Alopecurus myosuroides): 100%
Herbicidal action against PHBPU (Phartoitis purpureum [1]): 80%
pest or weed control at 320 g/ha (Abutilon theophrasti; [17]): 100%
pest or weed control at 320 g/ha (Veronica persica [2]): 100%
Herbicidal action against AVEFA (Avena fatua [3]): 90%
pest or weed control at 320 g/ha (Echinochloa crus galli [4]; [17]): 100%
pest or weed control at 320 g/ha (Amaranthus retroflexus [5]; [17]): 100%
pest or weed control at 320 g/ha (Stellaria media [6]): 90%
pest or weed control at 320 g/ha (Matricaria inodora [7]; [17]): 100%
pest or weed control at 80 g/ha (Phartoitis purpureum [8]; [18]): 90%
pest or weed control at 80 g/ha (Veronica persica [9]): 90%
Herbicidal action against AVEFA (Avena fatua [10]): 80%
pest or weed control at 80 g/ha (Echinochloa crus galli [11]; [19]): 90%
pest or weed control at 80 g/ha (Fallopia convolvulus; [19]): 100%
pest or weed control at 80 g/ha (Amaranthus retroflexus [12]): 80%
pest or weed control at 80 g/ha (Stellaria media [13]): 90%
pest or weed control at 80 g/ha (Matricaria inodora [14]; [19]): 100%

CCS(=O)(=O)c1ccc(C(=O)C2=C(O)CCCC2=O)c(Cl)c1OCC(=O)N(C)OC [Compound S8, reference compound]
Herbicidal action against PHPBU (Phartoitis purpureum [1]): 70%
pest or weed control at 320 g/ha (Abutilon theophrasti; [20]): 90%
pest or weed control at 320 g/ha (Echinochloa crus galli [4]; [20]): 60%
pest or weed control at 320 g/ha (Amaranthus retroflexus [5]; [20]): 90%
pest or weed control at 320 g/ha (Matricaria inodora [7]; [20]): 90%
Herbicidal action against VIOTR (VIOTR [15]): 80%
pest or weed control at 80 g/ha (Phartoitis purpureum [8]; [21]): 80%
pest or weed control at 80 g/ha (Echinochloa crus galli [11]; [22]): 80%
pest or weed control at 80 g/ha (Fallopia convolvulus; [22]): 80%
pest or weed control at 80 g/ha (Matricaria inodora [14]; [22]): 60%
Herbicidal action against SETVI (SETVI): 50%
Herbicidal action against VIOTR (VIOTR [16]): 20%

CCS(=O)(=O)c1ccc(C(=O)C2=C(O)CCCC2=O)c(C(F)(F)F)c1OCC(=O)N(C)OC [Compound E8]
Herbicidal action against PHPBU (Phartoitis purpureum [1]): 90%
pest or weed control at 320 g/ha (Abutilon theophrasti; [17]): 100%
Herbicidal action against ABUTH (Abutilon theophrasti; [20]): 100%
pest or weed control at 320 g/ha (Veronica persica [2]): 100%
pest or weed control at 320 g/ha (Echinochloa crus galli [4]; [17]): 100%
Herbicidal action against ECHCG (Echinochloa crus galli [4]; [20]): 100%
pest or weed control at 320 g/ha (Amaranthus retroflexus [5]; [20]): 100%
pest or weed control at 320 g/ha (Stellaria media [6]): 100%
pest or weed control at 320 g/ha (Matricaria inodora [7]; [17]): 100%
Herbicidal action against MATIN (Matricaria inodora [7]; [20]): 100%
Herbicidal action against VIOTR (VIOTR [15]): 90%
pest or weed control at 80 g/ha (Phartoitis purpureum [8]; [21]): 80%
pest or weed control at 80 g/ha (Echinochloa crus galli [11]; [22]): 90%
pest or weed control at 80 g/ha (Fallopia convolvulus; [22]): 90%
pest or weed control at 80 g/ha (Matricaria inodora [14]; [22]): 90%
Herbicidal action against SETVI (SETVI): 90%
Herbicidal action against VIOTR (VIOTR [16]): 100%

CN(C)C(=O)COc1c(Cl)ccc(C(=O)C2=C(O)CCCC2=O)c1Cl [Compound S1, reference compound]
Herbicidal action against ALOMY (Alopecurus myosuroides): 40%
Herbicidal action against PHBPU (Phartoitis purpureum [1]): 40%
pest or weed control at 320 g/ha (Abutilon theophrasti; [17]): 90%
pest or weed control at 320 g/ha (Veronica persica [2]): 70%
Herbicidal action against AVEFA (Avena fatua [3]): 20%
pest or weed control at 320 g/ha (Echinochloa crus galli [4]; [17]): 30%
pest or weed control at 320 g/ha (Amaranthus retroflexus [5]; [17]): 60%
pest or weed control at 320 g/ha (Stellaria media [6]): 80%
pest or weed control at 320 g/ha (Matricaria inodora [7]; [17]): 100%
pest or weed control at 80 g/ha (Phartoitis purpureum [8]; [18]): 70%
pest or weed control at 80 g/ha (Veronica persica [9]): 70%
Herbicidal action against AVEFA (Avena fatua [10]): 50%
pest or weed control at 80 g/ha (Echinochloa crus galli [11]; [19]): 50%
pest or weed control at 80 g/ha (Fallopia convolvulus; [19]): 60%
pest or weed control at 80 g/ha (Amaranthus retroflexus [12]): 80%
pest or weed control at 80 g/ha (Stellaria media [13]): 70%
pest or weed control at 80 g/ha (Matricaria inodora [14]; [19]): 100%
